This is an account of results in US7585851B2, “3′-prodrugs of 2′-deoxy-β-L-nucleosides” (priority 2000, dated 2009).

In brackets after ≈: the same amount, converted by molar mass. Several values for one entry are separate records, joined by “and”; a condition that tells them apart may be missing. Equal entries are not always repeated. Structures can show the parent of a compound that is named as a salt. Where two headings read alike, the source gives them in different places. A value given as a limit tells only on which side of the number the result lay.

For data set [1] the following is noted: octanol-1 / MilliQ water pH 6.5; Study 1, Study 2; listed as L-dC-3′,5′-divalinyl ester hydrochloride. The protocol: (§1) To 1 mL of this solution, 1 mL of octanol-1 (B) saturated with MilliQ water (A′) was added.
as §1

Data set [2] can be described thus: Oral bioavailability of L-dC via dival-L-dC in cynomologus monkey (HPLC study). From the text: The drug was quantitated in plasma and in urine using HPLC analysis.
Data set [3] is described as follows: Escalating oral dose toxicity of dival-L-dC in monkeys. It is filed as in vivo, cynomologus monkey. From the text:
[…]. […] Clinical observations were documented daily. Blood samples for hematology and serum chemistries were collected and body weight measured before treatment on Days 1, 4, 7, 10, and 14, and before necropsy on Day 17. After completion of Day 17 evaluations, all animals were euthanized and a complete necropsy performed, including macroscopic examination and comprehensive tissue collection.

The conditions of data set [4]: human.
Data set [5] can be described thus: Bioavailability of the prodrugs of L-dC in monkeys, with and without L-dT. The note with it: for % BA (bioavailability of L-dC): estimated relative to AUC of L-dC (oral dose).
Data set [6] is described as follows: Log P study, octanol-1/phosphate buffer pH 7.2.
The conditions of data set [7]: for Tlast: analyte = label.
The nature of data set [8]: Solubility study in water (HPLC). The following applies: for Solubility (mol/L) / Solubility (g/L): in water.
Data set [9] can be described thus: Mitochondrial toxicity assay in HepG2 cells. It is filed as cell-based, human. The following applies: human.
Data set [10] relates to HepG2 cells. The note with it: human.
For data set [11], the target named is virion-associated DNA polymerase of WHV (Woodchuck hepatitis B virus, UniProt P03160). Kind of data set: biochemical.
Data set [12] has as its target T1, human DNA polymerase β (Homo sapiens, UniProt P06746). It is filed as biochemical. The note with it: highest concentration tested 100 μM; read-out: IC50 Human DNA pol β. The text has this: (§2) Nucleosides and nucleoside analogs are usually metabolized within cells to their TP derivatives. Cellular DNA polymerases are routinely responsible for normal nuclear and mitochondrial DNA synthesis and repair. Because the TP metabolites are potential substrates for DNA polymerases, studies were undertaken to determine if L-dC-TP inhibited human DNA polymerases.

Data set [13] concerns the target T2, human DNA polymerase γ (Homo sapiens, UniProt P54098).
T2 sequence (P54098 1-1239): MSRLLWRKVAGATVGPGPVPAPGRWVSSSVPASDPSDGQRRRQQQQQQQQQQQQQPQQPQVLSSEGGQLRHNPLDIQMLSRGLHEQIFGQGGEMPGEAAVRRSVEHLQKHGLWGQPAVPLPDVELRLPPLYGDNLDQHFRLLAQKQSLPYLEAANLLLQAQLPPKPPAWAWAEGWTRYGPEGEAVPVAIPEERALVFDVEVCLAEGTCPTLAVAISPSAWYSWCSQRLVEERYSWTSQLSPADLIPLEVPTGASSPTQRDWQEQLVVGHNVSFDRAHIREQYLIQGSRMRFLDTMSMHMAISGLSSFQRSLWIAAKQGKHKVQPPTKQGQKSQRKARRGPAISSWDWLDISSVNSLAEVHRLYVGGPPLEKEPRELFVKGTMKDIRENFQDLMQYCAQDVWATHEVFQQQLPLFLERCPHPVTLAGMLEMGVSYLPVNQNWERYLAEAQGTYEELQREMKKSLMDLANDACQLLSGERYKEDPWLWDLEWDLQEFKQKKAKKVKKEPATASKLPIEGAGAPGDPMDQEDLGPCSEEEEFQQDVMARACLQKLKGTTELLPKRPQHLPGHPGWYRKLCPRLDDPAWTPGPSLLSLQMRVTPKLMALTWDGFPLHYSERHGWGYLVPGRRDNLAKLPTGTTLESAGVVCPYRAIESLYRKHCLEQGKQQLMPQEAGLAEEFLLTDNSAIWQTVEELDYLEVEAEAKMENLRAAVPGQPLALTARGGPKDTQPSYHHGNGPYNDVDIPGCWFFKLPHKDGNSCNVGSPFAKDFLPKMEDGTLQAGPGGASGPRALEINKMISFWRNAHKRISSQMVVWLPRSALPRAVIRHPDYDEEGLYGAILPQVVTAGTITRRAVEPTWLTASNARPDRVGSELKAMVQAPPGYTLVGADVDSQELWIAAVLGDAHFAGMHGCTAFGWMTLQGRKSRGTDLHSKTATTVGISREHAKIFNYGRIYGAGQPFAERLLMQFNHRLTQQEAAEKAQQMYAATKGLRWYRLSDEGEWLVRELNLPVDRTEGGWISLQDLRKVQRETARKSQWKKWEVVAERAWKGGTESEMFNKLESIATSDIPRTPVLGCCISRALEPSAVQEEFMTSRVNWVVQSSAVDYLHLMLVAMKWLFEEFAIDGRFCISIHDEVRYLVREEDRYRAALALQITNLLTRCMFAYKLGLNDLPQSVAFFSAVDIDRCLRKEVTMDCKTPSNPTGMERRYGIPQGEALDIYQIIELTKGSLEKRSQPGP
It is filed as biochemical. The following applies: highest concentration tested 100 μM.
Excerpt: as §2

The nature of a further data set: in vitro. The note with it: human.
The conditions of data set [14]: Day 25, analyte = label.
For data set [15], the system named is human erythroid burst-forming (BFU-E) progenitor cells. It is filed as cell-based. The following applies: human bone marrow clonogenic assay. The text has this: (§3) In particular, anemia and neutropenia are the most common drug-related clinical toxicities associated with the anti-HIV drug zidovudine (ZDV).
Data set [16] has as its system human granulocyte-macrophage colony-forming (CFU-GM) progenitor cells. It is filed as cell-based. The note with it: human bone marrow clonogenic assay.
Excerpt: as §3

Data set [17] has as its system HepG2 cells. As to the kind of experiment: Mitochondrial toxicity assay in HepG2 cells. It is filed as cell-based, human. The following applies: human.
For data set [18], the target named is T1, human DNA polymerase β. The note with it: from Chang, et al. / Yao, read-out: IC50 Human DNA pol β; cited from earlier work.
Data set [19] addresses T2, human DNA polymerase γ. The following applies: from Chang, et al. / Yao; cited from earlier work.
Data set [20] in a line: Single dose bioavailability of dival-L-dC (IV and oral) in cynomologus monkey. The note with it: oral dival-L-dC; analyte = label. Format: in vivo, cynomologus monkey (macaca fascicularis). From the text: The drug was quantitated in plasma and urine with a liquid chromatography-mass spectrometry (LC-MS) technique.
For data set [21], the system named is cytosolic extracts of HepG2 cells. As to the kind of experiment: Steady state phosphorylation kinetics in HepG2 cytosolic extracts. It is filed as biochemical, human.
Setting [22] is: endogenous polymerase assay, read-out: IC50 Viral DNA pol (WHV DNA polymerase).

virion-associated DNA polymerase of WHV, sequence (P03160 whole entry): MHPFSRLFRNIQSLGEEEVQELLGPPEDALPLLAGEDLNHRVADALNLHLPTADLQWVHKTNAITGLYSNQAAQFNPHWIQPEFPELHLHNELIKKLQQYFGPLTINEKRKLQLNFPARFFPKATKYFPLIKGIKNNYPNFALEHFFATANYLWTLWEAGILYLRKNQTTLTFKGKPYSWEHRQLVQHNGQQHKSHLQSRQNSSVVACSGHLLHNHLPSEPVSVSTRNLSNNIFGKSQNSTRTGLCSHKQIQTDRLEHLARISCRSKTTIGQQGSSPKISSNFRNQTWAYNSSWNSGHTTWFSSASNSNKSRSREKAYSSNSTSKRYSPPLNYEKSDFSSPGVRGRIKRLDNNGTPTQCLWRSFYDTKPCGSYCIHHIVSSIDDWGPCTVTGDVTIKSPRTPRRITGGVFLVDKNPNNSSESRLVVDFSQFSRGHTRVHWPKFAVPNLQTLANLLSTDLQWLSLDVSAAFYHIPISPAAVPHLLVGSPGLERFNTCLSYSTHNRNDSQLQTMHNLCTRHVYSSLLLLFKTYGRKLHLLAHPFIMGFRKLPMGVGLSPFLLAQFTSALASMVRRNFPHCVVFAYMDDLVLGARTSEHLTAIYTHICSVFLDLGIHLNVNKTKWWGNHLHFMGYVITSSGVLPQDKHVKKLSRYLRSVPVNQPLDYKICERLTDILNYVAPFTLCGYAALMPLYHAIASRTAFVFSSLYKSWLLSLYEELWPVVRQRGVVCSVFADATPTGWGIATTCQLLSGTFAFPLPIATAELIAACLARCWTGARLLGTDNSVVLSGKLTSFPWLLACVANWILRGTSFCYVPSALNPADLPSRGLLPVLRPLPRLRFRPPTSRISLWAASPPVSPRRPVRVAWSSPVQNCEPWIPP

For the molecule `CC(C)[C@H](N)C(=O)OC[C@@H]1O[C@H](n2ccc(N)nc2=O)C[C@H]1OC(=O)[C@@H](N)C(C)C` [dival-L-dC, 3′,5′-L-divaline ester of 2′-deoxy-β-L-cytidine], in [1], the “P′ (B/A′)” value was 1.80 × 10^−3 and 1.77 × 10^−3. Further, the “administered oral dose recovered in urine” value is 31% in [2] (after 72 hours) and “Approximately 26%” in data set [2] (within 8 hours). Moreover, the “loss in body weight following the initial dose on Day 1” value in data set [3] (20 mg/kg oral, each animal) is given as “approximately 0.6 kg”. The “BUN decrease at Day 17 compared to Day 1” value in data set [3] (cumulative, all four monkeys) is recorded as about 43%. Further, the no-observed-adverse-effect level (NOAEL) is recorded as 2000 mg/kg in data set [3] (single oral dose by gavage (escalation 20-2000 mg/kg), monkey) and under 500 mg/kg in data set [7] (28 day oral, rat). In addition, the plasma protein binding in [4] is reported as 13.3%±2.6%. Further, in data set [5], the “share of the oral dose absorbed” value is “approximately 73%”. The “share of the absorbed ester converted to L-dC” value in [5] (oral) is “more than 99%”. In addition, in [5] (oral, coadministered with 10 mg/kg L-dT), the “% BA w/ L-dT” value stood at 74.6 ± 9.9%. Moreover, the “% BA (bioavailability of L-dC)” value in [5] (oral, listed as 3′,5′-divaline ester of L-dC) is listed as “higher oral bioavailability than the parent L-dC”; in data set [5] (oral, listed as L-dC di-valine) it was 72.7 ± 22.0%. Besides, in data set [6], the “conversion detected in the organic phase during log P experiment” value was 14%. The “Solubility (mol/L)” value in [8] (listed as 3′,5′-divalinyl ester hydrochloride of β-L-dC) is given as “more than 2.5 mol/L”.
Consider `Nc1ccn([C@H]2CC[C@@H](CO)O2)c(=O)n1` [ddC, zalcitabine, reference compound], for which the CC50 at 14 days in data set [9] was 20000 nM.
In the case of `Nc1ccn([C@@H]2C[C@@H](O)[C@H](COP(=O)(O)OP(=O)(O)OP(=O)(O)O)O2)c(=O)n1` [L-dC-TP], the apparent intracellular half-life in the data set on HepG2 cells [10] is 15.5 ± 0.34 h. In addition, the IC50 in data set [11] was 1820 nM; on human DNA polymerase β [12] it was over 100000 nM; at human DNA polymerase γ [13], over 100000 nM. Also, the half-life in the data set “in vitro” is 15.5 h.
`Nc1ncnc2c1ncn2[C@@H]1CC[C@H](COP(=O)(O)OP(=O)(O)OP(=O)(O)O)O1` [L-ddA-TP]: the IC50 in data set [11] (setting [22]) turned out to be 2000 ± 300 nM.
On to `CC(C)[C@H](N)C(=O)OC[C@@H]1O[C@H](n2ccc(N)nc2=O)C[C@H]1O` [5′-val-L-dC, 5′-L-valine ester of 2′-deoxy-β-L-cytidine hydrochloride], for which, in [5] (oral), the “% BA (bioavailability of L-dC)” value is given as 39.0 ± 11.4%. Also, the Tlast in data set [7] (dival-L-dC 1000 mg/kg/day oral, Day 1, F) came to 4 h; in data set [7] (dival-L-dC 1000 mg/kg/day oral, Day 1, M), 4 h; in data set [7] (dival-L-dC 1000 mg/kg/day oral, Day 28, F), 4 h; in data set [7] (dival-L-dC 1000 mg/kg/day oral, Day 28, M), 8 h; in data set [7] (dival-L-dC 2000 mg/kg/day oral, Day 1, F) it was 8 h; in [7] (dival-L-dC 2000 mg/kg/day oral, Day 1, M), 8 h. The Tlast in data set [7] (dival-L-dC 2000 mg/kg/day oral, Day 28, F) came out at 24 h; in [7] (dival-L-dC 2000 mg/kg/day oral, Day 28, M), 8 h. Besides, the “Tlast (median)” value in data set [14] (dival-L-dC 1000 mg/kg/day oral, F) amounted to 4 h; in data set [14] (dival-L-dC 1000 mg/kg/day oral, M), 5 h; in [14] (dival-L-dC 2000 mg/kg/day oral, F), 8 h.
In the case of `CC(C)[C@H](N)C(=O)O[C@@H]1C[C@@H](n2ccc(N)nc2=O)O[C@H]1CO` [3′-val-L-dC, 3′-L-valine ester of 2′-deoxy-β-L-cytidine], in [5] (oral), the “% BA (bioavailability of L-dC)” value was 85.1 ± 24.5%. In addition, the “Solubility (g/L)” value in data set [8] and in data set [8] (listed as 3′-valinyl ester hydrochloride of β-L-dC) was over 408 g/L throughout. The “Concentration of solution of the maximum quantity available, single samples” value in [8] (water, saturation not obtained, 3 samples, listed as 3′-valinyl ester hydrochloride of β-L-dC) is 1.013 mol/L and 0.996 mol/L and 1.059 mol/L.
As to `Cc1cn([C@H]2C[C@H](N=[N+]=[N-])[C@@H](CO)O2)c(=O)[nH]c1=O` [ZDV, zidovudine, reference compound], the figures for the IC50 in [15] and in [16] were 700 nM and 1800 nM, respectively. Moreover, the “mtDNA, % of Control” value in the data set on HepG2 cells [17] is listed as 119 % of Control. In data set [9], this molecule gave a CC50 at 14 days of 14000 nM.
For the molecule `Cc1cn([C@H]2O[C@@H](COP(=O)(O)OP(=O)(O)OP(=O)(O)O)[C@H](O)[C@H]2F)c(=O)[nH]c1=O` [L-FMAU-TP], the IC50 in data set [11] (setting [22]) is 150 ± 50 nM; on human DNA polymerase β [18], over 50000 nM; at human DNA polymerase γ [19] it was over 50000 nM.
As for `O=c1ccn([C@@H]2C[C@@H](O)[C@H](CO)O2)c(=O)[nH]1` [L-dU, β-L-2′-deoxyuridine], in data set [20], the “share of drug excreted / recovered dose in urine, by analyte” value is given as “approximately 2.5%”.
In the case of `Cc1cn([C@H]2C[C@H](O)[C@@H](CO)O2)c(=O)[nH]c1=O` [Thd, D-thymidine], in data set [21], the Vmax of phosphorylation is 1.26 nmol/min/mg protein.
For `O=c1[nH]c(=O)n([C@@H]2O[C@H](CO)[C@@H](O)[C@@H]2F)cc1I` [FIAU, fialuridine, reference compound], the “mtDNA, % of Control” value with HepG2 cells [17] is recorded as 86 % of Control. In addition, in data set [9], the CC50 at 14 days is 4000 nM.
For `Nc1ccn([C@@H]2CS[C@H](COP(=O)(O)OP(=O)(O)OP(=O)(O)O)O2)c(=O)n1` [Lamivudine-TP], the IC50 in data set [11] (setting [22]) was 500 ± 100 nM; at human DNA polymerase β [18], 1200 nM; at human DNA polymerase γ [19] it was 10 nM.
Consider `Nc1ccn([C@H]2C[C@H](O)[C@@H](CO)O2)c(=O)n1` [D-dC, D-Deoxycytidine, reference compound], for which the Vmax of phosphorylation in data set [21] is listed as 2.15 nmol/min/mg protein. In data set [8], the “Solubility (g/L)” value was determined as 272 g/L (≈ 1200 mM) and the “Solubility (mol/L)” value was determined as 1.03 mol/L (≈ 234 mg/mL).

What is called NOAEL is the highest tested level that showed no adverse finding. The term CC50 denotes the concentration that lowers cell viability or growth by half. A word on the IC50: it is the concentration that gives 50% inhibition. A word on the half-life: it is the time needed for the level to fall by half in the phase considered.
